In patent US4668677A, “4-phenylphthalazine derivatives, their preparation and their use as pharmaceuticals” (Mitsubishi Chemical Industries Limited, priority 1984, dated 1987):
Where two headings read alike, the source gives them in different places.

Key:
[1] = tested on: femoral artery; test: Action on blood flow volume in femoral artery; format: in vivo, rabbit (male New Zealand White)
Experimental: (§1) Male New Zealand White rabbits (body weight of 2.8 Kg to 3.5 Kg) were used and anesthetized with pentobarbital sodium. Blood flow volumes in the carotid artery and femoral artery were measured and recorded via a non-blood observing type of a probe for measuring blood flow volume. Also, blood pressure in femoral artery was simultaneously measured and recorded with measurement of blood flow.
(§2) The compound of this invention was dissolved in an aqueous solution containing 1% tartaric acid and 1% dimethylacetamide, while papaverine hydrochloride dissolved in 0.9% physiological saline. These test compounds were intravenously given through a residual polyethylene tube within femoral vein.

[2] = tested on: rabbits; test: Anti-thrombotic activity: arachidonic acid-induced mortality in rabbits; format: in vivo, rabbit (male New Zealand White)
Experimental: (§3) Male ICR-JCL strain mice with an average body weight of about 25 g and male New Zealand White rabbits with an average body weight of about 3 Kg were used.
Where rabbits were used as experimental animals, a suspension of the test compound in a 1% tragacanth aqueous solution was orally administered to animals at 5 ml/Kg. Two hours after the administration, an arachidonic acid solution dissolved in a 0.1M potassium carbonate solution was injected into pinna vein at 1.4 mg/Kg.
Evaluation of activity was effected with mortality at the time when arachidonic acid given. If survived at the first administration of arachidonic acid, arachidonic acid was administered after 6 hours, 24 hours, 48 hours and 72 hours from the administration of the test compound, respectively, and mortality was determined in respective cases.

[3] = tested on: mice; test: Anti-thrombotic activity: arachidonic acid-induced mortality in mice; format: in vivo, mouse (male ICR-JCL strain); conditions: for Survival time of dead mice: arachidonic acid 100 mg/Kg i.v.; for Mortality: arachidonic acid 100 mg/Kg i.v. after 1 hour
Experimental: as §3
Where mice were used as experimental animals, a suspension of the test compound indicated in Table 3 in a 1% tragacanth aqueous solution was orally administered to animals at 20 ml/Kg. One hour after the administration, an arachidonic acid (PL-biochemical Co., Inc.) solution dissolved in a 0.1M sodium carbonate aqueous solution was intravenously given at 100 mg/Kg. Evaluation of activity was effected with the time from the administration of arachidonic acid up to the death of animals as well as mortality.

[4] = tested on: blood platelets; test: Activity to inhibit the aggregation of blood platelets (collagen, ex vivo after oral administration); format: in vivo, rat (male Wistar-ST strain); conditions: Rattus norvegicus, Platelet
Experimental: Male Wistar-ST strain rats of an average body weight of 250 g were used, a group consisting of 8 animals. The test compound indicated in the following Table 1 was orally administered to rats in the form of a suspension in a 1% tragacanth aqueous solution at 4 ml/Kg (the test compound 10 mg/Kg).
One hour after the administration, blood samples were obtained from the carotid artery by means of a cannule. […] Tubes were turned upside-down and then subjected to centrifugation at 200×g over 15 minutes to assign the supernatant as a platelet-rich plasma (PRP). The residue was further centrifuged at […] over 15 minutes to assign the supernatant as a platelet-poor plasma (PPP). These supernatants were applied for determining the ability to aggregate blood platelets. […] As an aggregation inducing agent, collagen (availale from Hormon-chemie A.G.) was used at a concentration of 7 to 10 μg/ml.
Inhibitory rate to aggregate blood platelets was calculated according to the following equation: [formula] A: […] in the group to which the 1% tragacanth solution alone was given (Control)
B: Aggregation rate in the group to which the tragacanth solution of the test compound was given.

[5] = tested on: PGI2-like substance in vessel walls; test: Influence on production of PGI2-like substance in vessel walls (ADP aggregation with carotid artery ring); format: in vivo, rat (male Wistar-ST strain); conditions: 1 hour, 10 μM ADP
Experimental: Male Wistar-ST strain rats with an average weight of about 250 g were used as experimental animals. After fasted for 18 hours, 6.3 ml of blood sample were obtained from corotid artery and immediately thereafter 0.7 ml of an anticoagulant (3.8% sodium citrate) was added and the sample was centrifuged at 200×g over 15 minutes to take platelet-rich plasma (PRP). The same procedures as above were carried out, using 5 to 6 rats, whereby 5-6 ml as normal PRP were stored and employed.
Reference aggregation values were determined by pouring 1 ml each of stored PRP into plastic test tubes, incubating them at 22° C. for 10 minutes and then determining aggregation rate. As an aggregation inducing agent, one employed 10 μM ADP (available from Sigma Co., Inc.)
A suspension of the compound of this invention or aspirin in a 1% aqueous solution of tragacanth was orally given to animals. After 1 hour, 5 mg of carotid artery were cut out in a ring shape and placed into a plastic test tube together with 1 ml of stored PRP. After incubated at 22° C. for 10 minutes, aggregation rate was determined.
Also, non-medicated groups were similarly treated and aggregation rate was determined.
Determination of blood platelet aggregation rate was made by means of an aggregometer.

[6] = in vivo; conditions: rat, po, rats
[7] = tested on: femoral artery; test: Action on blood pressure in femoral artery; format: in vivo, rabbit (male New Zealand White)
Experimental: as §1, §2

CC(C)(C)CNc1nnc(-c2ccccc2)c2ccccc12 [Compound 1, 1-neopentylamino-4-phenylphthalazine]
Blood flow volume in femoral artery, A: Before administration ([1]; 0.01 mg/Kg i.v.): 19.0 mL/min | Blood flow volume in femoral artery, B: After administration ([1]; 0.01 mg/Kg i.v.): 22.1 mL/min | Blood flow volume in femoral artery, C: Increase degree ([1]; 0.01 mg/kg i.v.): 3.1 mL/min | Blood flow volume in femoral artery, D: Increase rate ([1]; 0.01 mg/kg i.v.): 9.9% | Blood flow volume in femoral artery, A: Before administration ([1]; 0.05 mg/Kg i.v.): 18.5 mL/min | Blood flow volume in femoral artery, B: After administration ([1]; 0.05 mg/Kg i.v.): 24.3 mL/min | Blood flow volume in femoral artery, C: Increase degree ([1]; 0.05 mg/kg i.v.): 5.8 mL/min | Blood flow volume in femoral artery, D: Increase rate ([1]; 0.05 mg/kg i.v.): 28.2% | Blood flow volume in femoral artery, A: Before administration ([1]; 0.1 mg/Kg i.v.): 18.5 mL/min | Blood flow volume in femoral artery, B: After administration ([1]; 0.1 mg/Kg i.v.): 27.8 mL/min | Blood flow volume in femoral artery, C: Increase degree ([1]; 0.1 mg/kg i.v.): 9.3 mL/min | Blood flow volume in femoral artery, D: Increase rate ([1]; 0.1 mg/kg i.v.): 65.2% | Blood flow volume in femoral artery, A: Before administration ([1]; 0.5 mg/Kg i.v.): 19.5 mL/min | Blood flow volume in femoral artery, B: After administration ([1]; 0.5 mg/Kg i.v.): 28.2 mL/min | Blood flow volume in femoral artery, C: Increase degree ([1]; 0.5 mg/kg i.v.): 8.7 mL/min | Blood flow volume in femoral artery, D: Increase rate ([1]; 0.5 mg/kg i.v.): 55.3% | Mortality (number of rabbits) ([2]; 10 mg/Kg oral, 2 hrs. after administration, of 4 rabbits): 1 | Mortality (number of rabbits) ([2]; 10 mg/Kg oral, 6 hrs. after administration, of 4 rabbits): 2 | Mortality (number of rabbits) ([2]; 10 mg/Kg oral, 24 hrs. after administration, of 4 rabbits): 1 | Mortality (number of rabbits) ([2]; 30 mg/Kg oral, 24 hrs. after administration, of 8 (Compound 1) or 4 rabbits): 3 | Mortality (number of rabbits) ([2]; 30 mg/Kg oral, 48 hrs. after administration, of 8 (Compound 1) or 4 rabbits): 1 | Mortality (number of rabbits) ([2]; 30 mg/Kg oral, 72 hrs. after administration, of 8 rabbits): 4 | Survival time of dead mice ([3]; 30 mg/Kg oral): 101 ± 11 s | Mortality ([3]; 30 mg/Kg oral): 75% | Survival time of dead mice ([3]; 100 mg/Kg oral): 108 ± 11 s | Mortality ([3]; 100 mg/Kg oral): 75% | Mortality ([3]; 300 mg/Kg oral): 0% | inhibition at 3 mg/kg ([4]; 3 mg/Kg oral (Table 5), read-out: Inhibitory rate of blood platelet aggregation): 48.1% | inhibition at 10 mg/kg ([4]; 10 mg/Kg oral (Table 5), read-out: Inhibitory rate of blood platelet aggregation): 100% | inhibition at 10 mg/kg ([4]; 10 mg/Kg oral, 1 hour after administration, collagen 7 to 10 μg/ml, read-out: Inhibitory rate (blood platelet aggregation)): 100% | inhibition at 30 mg/kg ([4]; 30 mg/Kg oral (Table 5), read-out: Inhibitory rate of blood platelet aggregation): 100% | Aggregation rate with ADP when carotid artery ring added ([5]; 3 mg/Kg oral): 2.7% | Aggregation rate with ADP when carotid artery ring added ([5]; 10 mg/Kg oral): 17.7% | Aggregation rate with ADP when carotid artery ring added ([5]; 30 mg/Kg oral): 10.0% | LD50 [6]: > 8000 mg/kg | Blood pressure in femoral artery, A: Before administration ([7]; 0.01 mg/kg i.v.): 96.0 mmHg | Blood pressure in femoral artery, B: After administration ([7]; 0.01 mg/kg i.v.): 92.3 mmHg | Blood pressure in femoral artery, E: Lowering degree ([7]; 0.01 mg/kg i.v.): 3.7 mmHg | Blood pressure in femoral artery, F: Lowering rate ([7]; 0.01 mg/kg i.v.): 3.8% | Blood pressure in femoral artery, A: Before administration ([7]; 0.05 mg/kg i.v.): 91.7 mmHg | Blood pressure in femoral artery, B: After administration ([7]; 0.05 mg/kg i.v.): 81.7 mmHg | Blood pressure in femoral artery, E: Lowering degree ([7]; 0.05 mg/kg i.v.): 10.0 mmHg | Blood pressure in femoral artery, F: Lowering rate ([7]; 0.05 mg/kg i.v.): 10.9% | Blood pressure in femoral artery, A: Before administration ([7]; 0.1 mg/kg i.v.): 90.0 mmHg | Blood pressure in femoral artery, B: After administration ([7]; 0.1 mg/kg i.v.): 81.7 mmHg | Blood pressure in femoral artery, E: Lowering degree ([7]; 0.1 mg/kg i.v.): 8.3 mmHg | Blood pressure in femoral artery, F: Lowering rate ([7]; 0.1 mg/kg i.v.): 8.8% | Blood pressure in femoral artery, A: Before administration ([7]; 0.5 mg/kg i.v.): 86.7 mmHg | Blood pressure in femoral artery, B: After administration ([7]; 0.5 mg/kg i.v.): 63.2 mmHg | Blood pressure in femoral artery, E: Lowering degree ([7]; 0.5 mg/kg i.v.): 23.5 mmHg | Blood pressure in femoral artery, F: Lowering rate ([7]; 0.5 mg/kg i.v.): 30.1%
